Measured values published in patent US20040067565A1, “Selective functionalization of hydrocarbons with isolated oxygenases and mediator based regeneration” (priority 2002, published 2004).
Where two headings read alike, the source gives them in different places. Marks after values point to notes of the source that are not given here.

Tests used:
[1] = target: T1, monooxygenase component of styrene monooxygenase (StyA) (Pseudomonas sp, UniProt O50214); assay: [Cp*Rh(bpy)(H2O)]2+ driven, StyA-catalyzed epoxidation / sulfoxidation; type: biochemical; conditions: substrate 2 mM, reaction time 15 min, 37 °C, 0.2 mM [Cp*Rh(bpy)(H2O)]2+, 1.47 μM StyA; for Epoxides concentration: 20 μM FAD, Positive = no standard substances available yet
Method: In a typical experimental setup 1 ml total volume was placed in an Eppendorf cup in a Thermomixer. The temperature was set to 37° C. and the reaction mixture was shaken thoroughly to ensure O2 intake.
Product formation was followed by reversed phase HPLC. The HPLC system (Merck) consisted of a D-7000 controller, L-7200 autosampler, L-7400 UV detector, L-7100 liquid chromatography pump and was fitted with a CC250/4 Nucleosil 100-5 C18 HD column. Samples were eluted under isocratic conditions using 60% acetonitrile and 40% water at a flow rate of 1 ml×min^−1. The elution pattern was monitored at 210 nm.
0.2 mM [Cp*Rh(bpy)(H2O)]^2+, 0.05 mM FAD, 0.005 mM FMN, 2 mM styrene, 280 U catalase, and 1.16 μM StyA in 50 mM potassium phosphate buffer with 150 mM sodium formate were incubated at 37° C. and agitation at 1500 rpm. At intervals, reactions were stopped by addition of one equivalent volume of cold acetonitrile. After centrifugation (15 min at 4° C. and 23000×g the upper phase was analyzed by reverse phase HPLC. Concentrations were corrected according to the phase ratio after centrifugation. Results from this experiment are given in FIG. 10 and Table 3.
0.2 mM [Cp*Rh(bpy)(H2O)]^2+, 0.02 mM FAD, 2 mM substrate, 200 U catalase, and 1.47 μM StyA in 50 mM potassium phosphate buffer with 150 mM sodium formate were incubated at 37° C. and agitation at 1500 rpm.
Styrene oxide was analyzed using a CC200/4 Nucleodex α-PM (Machery-Nagel). As eluent 60% methanol and 40% 6.2 mM TEAA in water was used at a flow rate of 0.7 ml×min^−1. 1,2-Dihydronaphthalene oxide, trans-β-Methylstyrene oxide, indene oxide, and methyl phenyl sulfoxide were extracted from the reaction buffer with one aliquot hexane und analyzed unsing normal phase HPLC with a CHIRACEL OB—H column and hexane:isopropanol 95:5 (9:1 for methyl phenyl sulfoxide) at a flow rate of 0.5 ml*min^−1 as mobile phase. As reference either authentical samples of racemic epoxides were used. (Table 4). […]

[2] = target: T2, Alkane Hydoxylase from P. Oleovorans (AlkB) (Ectopseudomonas oleovorans, UniProt P12691); assay: Direct reduction of alkane hydroxylase AlkB by [Cp*Rh(bpy)(H2O)]2+, hydroxylation of 3-ethyl toluene; type: biochemical; conditions: 200 μM [Cp*Rh(bpy)(H2O)]2+, 2 mM 3-ethyl toluene, AlkB crude extract, 30 °C, 20 minutes; average of 4 experiments
T2 construct: made in house; host or cells: E. coli
Method: In a typical experiment, 1 ml total volume of 200 μM [Cp*Rh(bpy)(H2O)]^2+ are incubated with 2 mM 3-ethyl toluene and 100 μl of a cell crude extract of recombinant E. coli overexpressing AlkB in a final volume of 1 ml 100 mM potassium phosphate buffer (pH 7.4) supplemented with 150 mM sodium formate and 1 mg/ml bovine serum albumin at 30° C. and vigorous shaking. After 20 minutes the reaction is stopped by addition of […] perchloric acid (10%). After centrifugation the supernatant is extracted with one aliquot of hexane. The organic phase is analyzed by normal phase HPLC (Nucleosil 250/3 100-5 C, mobile phase: hexane/isopropanol 95:5, flow rate=0.5 ml min^−1).

[3] = target: CytC (Equus caballus, UniProt P00004)
Method: On the other hand CytC is inactivated by hydrogen peroxide, which can be followed by the disappearing Soret-peak (heme absorbance at k=408 nm).
In a typical experiment […] CytC is incubated at 30° C. in the presence of 1 mM hydrogen peroxide. At intervals of 2 min the UV-spectrum (between 300 and 650 nm) is recorded (FIG. 18).
In identical experiments, the absorbance at 408 nm was followed over time.

[4] = target: T1, monooxygenase component of styrene monooxygenase (StyA); assay: [Cp*Rh(bpy)(H2O)]2+ driven, StyA-catalyzed epoxidation / sulfoxidation; type: biochemical; conditions: substrate 4 mM, reaction time 15 min, 37 °C, 0.2 mM [Cp*Rh(bpy)(H2O)]2+, 1.47 μM StyA

T1 sequence (O50214 whole entry): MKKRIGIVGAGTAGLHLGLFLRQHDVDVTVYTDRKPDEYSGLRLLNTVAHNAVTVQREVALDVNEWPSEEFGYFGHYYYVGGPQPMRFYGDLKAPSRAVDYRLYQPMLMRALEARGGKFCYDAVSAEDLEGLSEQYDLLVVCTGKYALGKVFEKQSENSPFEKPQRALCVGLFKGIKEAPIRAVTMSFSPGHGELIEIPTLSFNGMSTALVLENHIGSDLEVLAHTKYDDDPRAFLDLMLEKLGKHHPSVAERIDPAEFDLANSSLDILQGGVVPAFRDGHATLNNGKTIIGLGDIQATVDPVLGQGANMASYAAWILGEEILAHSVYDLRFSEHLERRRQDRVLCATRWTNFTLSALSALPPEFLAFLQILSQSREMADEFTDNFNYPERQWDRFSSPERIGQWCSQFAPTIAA
Sequence of CytC (P00004 whole entry): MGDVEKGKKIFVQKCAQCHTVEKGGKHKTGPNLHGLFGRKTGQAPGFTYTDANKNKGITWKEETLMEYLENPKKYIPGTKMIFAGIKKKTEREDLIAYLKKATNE
T2 sequence (P12691 whole entry): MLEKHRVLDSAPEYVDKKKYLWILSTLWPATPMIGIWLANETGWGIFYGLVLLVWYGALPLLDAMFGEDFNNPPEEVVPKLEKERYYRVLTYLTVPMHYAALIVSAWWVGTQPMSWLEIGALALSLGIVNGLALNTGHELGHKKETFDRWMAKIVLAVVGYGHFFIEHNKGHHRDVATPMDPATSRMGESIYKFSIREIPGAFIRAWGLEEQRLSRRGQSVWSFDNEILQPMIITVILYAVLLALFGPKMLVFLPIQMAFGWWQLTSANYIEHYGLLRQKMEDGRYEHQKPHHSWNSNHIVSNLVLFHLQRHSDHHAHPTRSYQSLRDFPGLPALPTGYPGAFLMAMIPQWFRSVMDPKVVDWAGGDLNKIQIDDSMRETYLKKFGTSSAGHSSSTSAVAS

## C1=Cc2ccccc2CC1 [1,2-Dihydronaphthalene]
[1]
  ee-value of the epoxides: 98.9%
  Epoxides concentration: 0.23 mM

## C=Cc1cccc(Cl)c1 [3-Chloro-styrene]
[1]
  Epoxides concentration: 0.37 mM

## Cc1cccc(CCO)c1 [3-methylphenethylalcohol]
[2]
  3-methylphenethylalcohol produced: about 0.015 mM

## C=Cc1ccc(Br)cc1 [4-Bromo styrene]
[1]
  Epoxides concentration: Positive^[c]

## C=Cc1ccc(Cl)cc1 [4-Chloro styrene]
[1]
  Epoxides concentration: Positive^[c]

## C=Cc1ccc(F)cc1 [4-Fluoro styrene]
[1]
  Epoxides concentration: Positive^[c]

## C=Cc1ccc(OC)cc1 [4-Methoxy styrene]
[1]
  Epoxides concentration: Positive^[c]

## C=Cc1ccc(C)cc1 [4-Methyl-styrene]
[1]
  Epoxides concentration: 0.29 mM

## OO [H2O2, hydrogen peroxide]
[3]; CytC 15 μM, 1 mM hydrogen peroxide, 10 minutes
  CytC enzymatic activity after preincubation (sulfoxidation of thioanisol): almost complete loss of enzymatic activity
[3]; [CytC] 5 μM, [H2O2] 5 mM
  dE (408 nm)/dt: -0.0116 min⁻¹
[3]; [CytC] 5 μM, [H2O2] 10 mM
  dE (408 nm)/dt: -0.0231 min⁻¹
[3]; [CytC] 5 μM, [H2O2] 20 mM
  dE (408 nm)/dt: -0.0399 min⁻¹
[3]; [CytC] 7.5 μM, [H2O2] 10 mM
  dE (408 nm)/dt: -0.0281 min⁻¹
[3]; [CytC] 10 μM, [H2O2] 5 mM
  dE (408 nm)/dt: -0.0234 min⁻¹
[3]; [CytC] 10 μM, [H2O2] 7.5 mM
  dE (408 nm)/dt: -0.0330 min⁻¹
[3]; [CytC] 10 μM, [H2O2] 10 mM
  dE (408 nm)/dt: -0.0438 min⁻¹
[3]; [CytC] 10 μM, [H2O2] 15 mM
  dE (408 nm)/dt: -0.0637 min⁻¹
[3]; [CytC] 10 μM, [H2O2] 20 mM
  dE (408 nm)/dt: -0.0821 min⁻¹

## C1=Cc2ccccc2C1 [Indene]
[1]
  ee-value of the epoxides: 97.9%
  Epoxides concentration: 0.42 mM

## CCSc1ccccc1 [Phenyl ethyl sulfide]
[1]
  Epoxides concentration: Positive^[c]

## C=Cc1ccccc1 [Styrene]
[4]; 20 μM FAD
  Epoxides concentration: 0.33 mM
[4]; (S)
  ee-value of the epoxides: <98 (S)^[a] %

## CSc1ccccc1 [Thioanisole]
[1]
  ee-value of the epoxides: 23.3%
  Epoxides concentration: 0.33 (Methyl mM

## C/C=C/c1ccccc1 [Trans-β-Methylstyrene]
[1]
  ee-value of the epoxides: 97.6%
  Epoxides concentration: 0.28 mM
